# Active and inactive are the calls of the source.
# Key:
# [1] = tested on: Streptococcus sp. 'group A'; test: Streptococcus pyogenes SK(-)GAS viability under kanamycin – luminescence, BacTiterGlo, confirmation, counter-screen for streptokinase expression inhibitor project, dose response (AID 1900); type: functional, organism-based
# Streptokinase A = target: T1, Streptokinase A (Streptococcus pyogenes serotype M1, UniProt P10520); test: viability-normalized secreted streptokinase activity reduction – plasminogen activation absorbance, OD405, dose response (AID 1914); type: functional, Streptococcus pyogenes M1 GAS;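 note: secreted streptokinase activity via plasminogen activation per viability signal from cell pellet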
# T1 sequence (P10520 whole entry): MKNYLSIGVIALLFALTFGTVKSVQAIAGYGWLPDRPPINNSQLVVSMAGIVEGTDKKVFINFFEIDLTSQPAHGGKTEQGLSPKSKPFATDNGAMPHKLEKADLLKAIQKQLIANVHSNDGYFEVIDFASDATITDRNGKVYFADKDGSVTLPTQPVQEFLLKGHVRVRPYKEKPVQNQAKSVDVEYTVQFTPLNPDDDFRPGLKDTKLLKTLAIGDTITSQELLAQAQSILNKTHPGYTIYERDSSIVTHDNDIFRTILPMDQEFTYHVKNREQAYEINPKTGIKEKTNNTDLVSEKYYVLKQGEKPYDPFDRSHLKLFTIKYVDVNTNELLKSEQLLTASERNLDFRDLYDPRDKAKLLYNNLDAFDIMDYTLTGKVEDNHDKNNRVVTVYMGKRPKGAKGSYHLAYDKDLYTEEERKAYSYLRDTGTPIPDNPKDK
# Streptococcus = test: GAS UMAA2166 growth inhibition – luminescence, BacTiterGlo, counter-screen for streptokinase expression inhibitor project, dose response (AID 1915); type: functional, organism-based;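 note: potency for reduction of bacterial viability or growth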
# [2] = Trypanosoma cruzi growth suppression in host cells – NIH3T3 host cells, beta-gal luminescence, confirmation (AID 2044); type: functional, cell-based;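 note: intracellular parasites grown in NIH/3T3 mouse fibroblasts as host cells; luminescent beta-galactosidase reporter signal from transgenic T. cruzi replicating inside host cells; inhibitors lower the luminescence signal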
# [3] = NIH3T3 cell viability loss – ATP luminescence, mouse fibroblasts, counter-screen, dose response (AID 2010); type: functional, cell-based;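 note: cells exposed to compound for about 90 hours before reading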
# INS1 = test: INS-1E survival protection against cytokine death – cell-based, luminescence, retest, dose response (AID 449756); type: functional; conditions: Rattus norvegicus;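 note: cell death triggered by IL-1 beta plus TNF-alpha plus IFN-gamma mixture; protective hits raise ATP signal compared with cytokine alone wells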
# [4] = target: Luciferin 4-monooxygenase (Photinus pyralis, UniProt P08659); test: inhibition of purified Photinus pyralis luciferase – biochemical, luminescence, dose response (AID 1891)
# Sequence of Luciferin 4-monooxygenase (P08659 whole entry): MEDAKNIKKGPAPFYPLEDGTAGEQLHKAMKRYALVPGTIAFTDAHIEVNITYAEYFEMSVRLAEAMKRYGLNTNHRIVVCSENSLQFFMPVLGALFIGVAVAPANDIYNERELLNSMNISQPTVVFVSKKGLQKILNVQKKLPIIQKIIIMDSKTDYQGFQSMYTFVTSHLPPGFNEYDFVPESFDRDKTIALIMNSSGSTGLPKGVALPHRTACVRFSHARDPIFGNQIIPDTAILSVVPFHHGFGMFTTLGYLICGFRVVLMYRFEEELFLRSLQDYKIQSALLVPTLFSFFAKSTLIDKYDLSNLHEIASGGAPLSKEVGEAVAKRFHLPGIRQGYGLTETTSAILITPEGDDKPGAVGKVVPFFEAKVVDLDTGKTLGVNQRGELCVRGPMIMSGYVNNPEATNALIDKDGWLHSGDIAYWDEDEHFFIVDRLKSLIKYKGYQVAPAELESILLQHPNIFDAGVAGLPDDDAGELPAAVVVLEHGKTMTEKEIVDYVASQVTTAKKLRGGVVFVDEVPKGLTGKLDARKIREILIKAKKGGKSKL
# [5] = Luminescence Cell-Based Dose Confirmation HTS to Identify Inhibitors of Platelet Dense Granule Release. [Related pubchem assays: 1663 (Primary HTS), 1678 (Summary of Project)]; type: functional
# [6] = target: T2, High affinity choline transporter 1 (Homo sapiens, UniProt Q9GZV3); test: human choline transporter blockers, potency – cell-based, 5-point CRC, membrane potential dye, dose response (AID 504840); type: functional
# T2 sequence (Q9GZV3 whole entry): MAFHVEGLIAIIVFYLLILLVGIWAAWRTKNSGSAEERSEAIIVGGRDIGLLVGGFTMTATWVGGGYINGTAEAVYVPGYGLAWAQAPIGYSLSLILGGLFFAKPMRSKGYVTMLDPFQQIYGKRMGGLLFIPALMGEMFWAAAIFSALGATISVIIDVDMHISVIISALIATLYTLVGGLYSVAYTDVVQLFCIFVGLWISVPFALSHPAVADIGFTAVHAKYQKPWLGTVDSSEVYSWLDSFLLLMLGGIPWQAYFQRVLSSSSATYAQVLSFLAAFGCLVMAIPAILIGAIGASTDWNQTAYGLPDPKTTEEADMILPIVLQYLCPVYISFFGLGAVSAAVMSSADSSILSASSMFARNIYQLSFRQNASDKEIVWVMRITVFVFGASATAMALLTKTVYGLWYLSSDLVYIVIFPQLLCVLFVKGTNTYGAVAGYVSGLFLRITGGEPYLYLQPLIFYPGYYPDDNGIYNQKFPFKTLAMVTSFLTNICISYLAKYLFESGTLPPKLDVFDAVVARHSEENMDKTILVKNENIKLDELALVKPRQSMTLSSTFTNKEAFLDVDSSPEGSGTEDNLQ
# [7] = Luminescence Cell-Based Dose Retest to Confirm Inhibitors of Cancer Stem Cells. [Related pubchem assays (depositor defined):AID2717, AID2721]; type: functional; conditions: Homo sapiens
# Cytochrome P450 2C19 = Cytochrome P450 2C19 (Homo sapiens, UniProt P33261); test: Cytochrome panel assay with activity outcomes. Panel member name: p450-cyp2c19 Compounds with AC50 equal or less than 10 uM are considered active; type: functional; conditions: read-out: AC50
# Sequence of Cytochrome P450 2C19 (P33261 whole entry): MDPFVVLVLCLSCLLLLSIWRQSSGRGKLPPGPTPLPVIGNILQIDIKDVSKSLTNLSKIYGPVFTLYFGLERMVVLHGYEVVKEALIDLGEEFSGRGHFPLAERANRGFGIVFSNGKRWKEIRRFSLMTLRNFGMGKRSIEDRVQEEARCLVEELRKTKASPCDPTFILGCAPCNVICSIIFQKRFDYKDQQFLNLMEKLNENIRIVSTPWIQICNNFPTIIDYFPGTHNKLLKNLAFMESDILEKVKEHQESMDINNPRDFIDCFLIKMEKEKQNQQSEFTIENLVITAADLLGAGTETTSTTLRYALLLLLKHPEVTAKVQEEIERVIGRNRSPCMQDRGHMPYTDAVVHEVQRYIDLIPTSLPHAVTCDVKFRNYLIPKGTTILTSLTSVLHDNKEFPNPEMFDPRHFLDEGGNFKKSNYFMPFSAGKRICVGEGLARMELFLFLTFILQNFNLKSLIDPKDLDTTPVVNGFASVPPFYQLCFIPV
# Cytochrome P450 2D6 = Cytochrome P450 2D6 (Homo sapiens, UniProt P10635);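 note: CYP2D6 member of a cytochrome P450 panel assay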
# Sequence of Cytochrome P450 2D6 (P10635 whole entry): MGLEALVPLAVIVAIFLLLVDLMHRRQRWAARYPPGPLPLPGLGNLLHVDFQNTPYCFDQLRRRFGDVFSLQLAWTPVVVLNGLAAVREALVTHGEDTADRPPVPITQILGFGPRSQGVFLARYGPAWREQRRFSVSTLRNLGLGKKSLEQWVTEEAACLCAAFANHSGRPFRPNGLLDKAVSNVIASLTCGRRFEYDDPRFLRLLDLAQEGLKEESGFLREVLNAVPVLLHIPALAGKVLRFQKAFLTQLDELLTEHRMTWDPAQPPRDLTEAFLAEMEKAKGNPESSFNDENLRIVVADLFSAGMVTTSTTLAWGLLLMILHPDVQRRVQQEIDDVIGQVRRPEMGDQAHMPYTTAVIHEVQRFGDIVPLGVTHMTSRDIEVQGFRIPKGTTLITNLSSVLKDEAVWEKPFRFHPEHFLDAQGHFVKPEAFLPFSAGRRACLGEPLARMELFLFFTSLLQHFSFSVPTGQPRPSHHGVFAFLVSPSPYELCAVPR
# Cytochrome P450 1A2 = target: T3, Cytochrome P450 1A2 (Homo sapiens, UniProt P05177);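 note: PubChem cytochrome P450 panel assay, CYP1A2 panel member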
# T3 sequence (P05177 whole entry): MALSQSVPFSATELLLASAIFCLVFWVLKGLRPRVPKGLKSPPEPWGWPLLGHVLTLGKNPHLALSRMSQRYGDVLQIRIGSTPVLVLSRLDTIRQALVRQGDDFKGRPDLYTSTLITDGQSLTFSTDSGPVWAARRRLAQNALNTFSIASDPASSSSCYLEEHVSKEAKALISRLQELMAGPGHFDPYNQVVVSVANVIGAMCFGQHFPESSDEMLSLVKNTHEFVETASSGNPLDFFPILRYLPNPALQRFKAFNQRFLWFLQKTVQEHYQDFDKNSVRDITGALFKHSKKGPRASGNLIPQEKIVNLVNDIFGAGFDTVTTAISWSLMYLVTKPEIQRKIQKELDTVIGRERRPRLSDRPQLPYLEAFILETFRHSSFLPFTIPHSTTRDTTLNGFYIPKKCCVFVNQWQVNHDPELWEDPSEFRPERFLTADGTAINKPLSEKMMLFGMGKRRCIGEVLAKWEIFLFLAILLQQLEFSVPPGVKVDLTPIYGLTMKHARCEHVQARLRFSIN
# Cytochrome P450 3A4 = Cytochrome P450 3A4 (Homo sapiens, UniProt P08684);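 note: CYP3A4 tested as one member of a cytochrome P450 panel screen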
# Sequence of Cytochrome P450 3A4 (P08684 whole entry): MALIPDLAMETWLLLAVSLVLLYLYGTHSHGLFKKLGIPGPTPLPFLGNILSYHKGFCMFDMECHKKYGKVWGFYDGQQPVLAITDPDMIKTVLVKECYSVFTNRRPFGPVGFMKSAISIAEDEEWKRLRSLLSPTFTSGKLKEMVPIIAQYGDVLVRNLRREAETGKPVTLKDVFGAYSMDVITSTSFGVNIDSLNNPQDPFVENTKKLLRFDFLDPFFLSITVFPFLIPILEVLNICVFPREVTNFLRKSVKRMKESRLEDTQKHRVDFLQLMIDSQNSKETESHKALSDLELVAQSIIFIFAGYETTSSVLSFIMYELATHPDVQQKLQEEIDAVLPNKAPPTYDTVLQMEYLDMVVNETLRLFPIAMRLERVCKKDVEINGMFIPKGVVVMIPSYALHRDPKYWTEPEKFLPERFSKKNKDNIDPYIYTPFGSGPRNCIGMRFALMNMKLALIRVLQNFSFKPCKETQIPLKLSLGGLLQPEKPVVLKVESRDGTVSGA
# [8] = target: T4, Heat shock factor protein 1 (Mus musculus, UniProt P38532); test: enhancement of HSF1-driven luciferase signal – cell-based, NIH3T3, luminescence, dose retest, confirmation (AID 435004); type: functional;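 note: stress induced by proteasome inhibitor MG132 added 30 min after compound; luciferase reporter driven by HSF1 response element in NIH3T3 cells; actives raise luminescence as potentiators of the MG132 stress response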
# T4 sequence (P38532 whole entry): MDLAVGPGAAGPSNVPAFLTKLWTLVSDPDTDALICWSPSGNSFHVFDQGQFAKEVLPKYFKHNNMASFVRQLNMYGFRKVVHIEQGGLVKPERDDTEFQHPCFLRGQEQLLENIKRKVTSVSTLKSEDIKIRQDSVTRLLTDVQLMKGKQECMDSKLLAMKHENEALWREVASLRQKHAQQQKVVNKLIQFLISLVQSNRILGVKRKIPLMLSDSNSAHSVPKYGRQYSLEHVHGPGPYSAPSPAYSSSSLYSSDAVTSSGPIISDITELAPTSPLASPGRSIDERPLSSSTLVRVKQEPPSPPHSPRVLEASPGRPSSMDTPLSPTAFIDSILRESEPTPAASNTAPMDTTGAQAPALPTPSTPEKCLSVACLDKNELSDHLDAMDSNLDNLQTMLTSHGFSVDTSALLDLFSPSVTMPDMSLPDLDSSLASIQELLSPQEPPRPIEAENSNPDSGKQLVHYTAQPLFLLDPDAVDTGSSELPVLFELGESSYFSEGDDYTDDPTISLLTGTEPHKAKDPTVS
# [9] = viability of PTEN-deleted HCT116 cells – cell-based, HCT116 PTEN knockout, dose response (AID 1047); type: functional;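 note: HCT116 colon tumor cells with PTEN knocked out; cells exposed to compound for 60 hours before readout; potency for loss of cell viability measured by luminescence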
# [10] = viability of HCT116 lacking mutant beta-catenin – cell-based, human colon tumor, dose response (AID 1045); type: functional;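 note: HCT116 colon tumor cells with beta catenin knocked out; cells exposed to compound for 60 hours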
compound,measurement,setting,value
CC1(C)CC(=O)C2=C(C1)N=C1c3ccccc3C(=O)C1C2c1ccc(Cl)cc1 (stereo not given),EC50,[1],6.07 µM (active)
same,EC50,Streptokinase A,14.8 µM (active)
same,EC50,Streptococcus,> 150 µM (not active)
C=CCn1cc(/C=C/c2cc[n+](C)cc2)c2ccccc21,EC50,[2],0.323 µM (active)
same,EC50,[3],> 60 µM (not active)
same,AC50,INS1,4.75 µM (active)
CC(Oc1cccc(Cl)c1)C(=O)Nc1ccccc1N1CCCC1 (stereo not given),EC50,[4],> 112 µM (not active)
same,EC50,[5],> 112 µM (not active)
Cc1noc(C)c1S(=O)(=O)N(CCc1ccccc1)Cc1ccccc1,EC50,[1],68.6 µM (active)
same,EC50,Streptokinase A,21.7 µM (active)
same,EC50,Streptococcus,> 150 µM (not active)
COc1ccc(NC(=O)c2cccc(OC(F)F)c2)cc1Cl,EC50,[4],17.3 µM (active)
same,EC50,[5],18.2 µM (active)
CC(C)OCCCN1CN(S(=O)(=O)c2cccs2)c2nc3ccccc3nc21,EC50,[4],> 112 µM (not active)
same,EC50,[5],> 112 µM (not active)
CCCNc1nc2c(c(=O)n(C)c(=O)n2C)n1CCC(C)C,IC50,[6],6.03 µM (active)
CCCCCCSc1ccc([C@H]2N[C@@](C)(C(=O)OC)[C@H]3C(=O)N(CC)C(=O)[C@@H]23)cc1,AC50,[7],33.7 µM (active)
CCCc1cc2c(-c3ccccc3)cc(=O)oc2cc1OCc1ccc(C(=O)O)o1,EC50,[1],8.37 µM (active)
same,EC50,Streptokinase A,13.8 µM (active)
same,EC50,Streptococcus,> 150 µM (not active)
CN(C)c1nc(OCCNC(=O)Nc2ccc(Cl)cc2)nc(N(C)C)n1,EC50,[4],21.3 µM (active)
same,EC50,[5],> 112 µM (not active)
C[C@@H]1CC[C@H]2C(=O)N3[C@@H](CC[C@@H](C)[C@@H]3c3ccc(Br)cc3)C(=O)N2[C@H]1c1ccc(Br)cc1,AC50,[7],3.04 µM (active)
Cc1nnc(SCC(=O)Nc2ccc(Br)cn2)nc1O,EC50,[4],> 112 µM (not active)
same,EC50,[5],> 112 µM (not active)
CC(Oc1ccccc1Cl)C(=O)Nc1ccc(S(=O)(=O)Nc2nccs2)cc1 (stereo not given),IC50,[6],5.01 µM (active)
COC(=O)C1(Cc2ccccc2)C=C2C(=C(C)C(=O)C2C)CN1 (stereo not given),AC50,Cytochrome P450 2C19,39.8 µM (inconclusive)
same,AC50,Cytochrome P450 2D6,15.8 µM (inconclusive)
same,AC50,Cytochrome P450 1A2,10 µM (inconclusive)
same,AC50,Cytochrome P450 3A4,15.8 µM (inconclusive)
Cc1ccccc1SCC(=O)OCC(=O)N(C)c1c(N)n(Cc2ccccc2)c(=O)[nH]c1=O,EC50,[4],> 112 µM (not active)
same,EC50,[5],> 112 µM (not active)
O=C1/C(=C/c2ccncc2)Oc2cc(OS(=O)(=O)c3ccccc3)ccc21,AC50,[7],3.32 µM (active)
Cc1ccc(-c2[nH]c3ccccc3c2C(C[N+](=O)[O-])c2ccco2)cc1 (stereo not given),EC50,[4],> 112 µM (not active)
same,EC50,[5],> 112 µM (not active)
same,EC50,[8],> 260 µM (inactive)
Cc1ccc(Nc2cc(C)nn2-c2nc(C)cc(C)n2)cc1,EC50,[1],6.89 µM (active)
same,EC50,Streptokinase A,> 150 µM (not active)
same,EC50,Streptococcus,18.2 µM (active)
CC1CCN(CCNC(=O)C2CCCN(c3ncnc4c3nc3n4CCCCC3)C2)CC1 (stereo not given),IC50,[6],13.2 µM (active)
CC(C)N1CCN(Cc2ccc(OC3CCCC3)cc2)CC1CCO (stereo not given),AC50,[7],3.58 µM (active)
O=c1c2sc3nc(N4CCOCC4)c4c(c3c2ncn1-c1ccccc1)CCCC4,EC50,[4],> 112 µM (not active)
same,EC50,[5],> 112 µM (not active)
Cc1cccc(NC(=O)c2[nH]cnc2C(=O)NC2CCN(C(=O)OC(C)(C)C)CC2)c1,AC50,[7],5.39 µM (active)
O=C(NCc1nnc(SCC(=O)N2CCOCC2)o1)c1c(F)cccc1F,EC50,[1],> 150 µM (not active)
same,EC50,Streptokinase A,> 150 µM (not active)
same,EC50,Streptococcus,> 150 µM (not active)
Cc1nc2sccn2c(=O)c1S(=O)(=O)NCC(C)c1ccccc1 (stereo not given),EC50,[4],> 112 µM (not active)
same,EC50,[5],> 112 µM (not active)
Cc1ccc(C)n1-c1ccc(C(=O)Nc2ccccc2)cc1,AC50,INS1,> 260 µM (inactive)
O=C(CSc1ccccc1)Nc1nc2ccccc2[nH]1,EC50,[4],> 112 µM (not active)
same,EC50,[5],> 112 µM (not active)
CCN(CC(=O)NC1CCS(=O)(=O)C1)S(=O)(=O)c1ccccc1 (stereo not given),EC50,[4],> 112 µM (not active)
same,EC50,[5],> 112 µM (not active)
Nc1c(C(=O)OCc2ccccc2)c2nc3ccccc3nc2n1Cc1cccs1,EC50,[1],10.9 µM (active)
same,EC50,Streptokinase A,18.5 µM (active)
same,EC50,Streptococcus,11.8 µM (active)
Cn1c2ccccc2c(=O)c2c(=O)n(C3CCCCC3)c(-c3cccs3)nc21,EC50,[1],10.6 µM (active)
same,EC50,Streptokinase A,> 150 µM (not active)
same,EC50,[9],7.92 µM (active)
same,EC50,[10],8.9 µM (active)
same,EC50,Streptococcus,39.2 µM (active)
COc1ccc(NC(=S)N2CCc3ccccc32)cc1OC,EC50,[4],> 112 µM (not active)
same,EC50,[5],> 112 µM (not active)
CCOC(=O)Nc1ccc(Cc2ccncc2)cc1,AC50,[7],25.3 µM (active)
COc1ccc(NC(=O)c2ccc(COc3ccccc3Br)o2)c(OC)c1,AC50,[7],2.2 µM (active)
Cc1ccc(NC(=O)C(C)Sc2nnc(C)n2C2CC2)cc1S(=O)(=O)N1CCOCC1 (stereo not given),AC50,INS1,> 260 µM (inconclusive)
CN(C)C=O.O=C(c1cc(-c2ccccc2Cl)nc2ccccc12)N1CCN(c2ccccn2)CC1,AC50,INS1,3.9 µM (active)
CCN(CC)c1nc(Nc2ccc([N+](=O)[O-])cc2)nc(N(CC)CC)n1,EC50,[1],6.64 µM (active)
same,EC50,Streptokinase A,> 150 µM (not active)
same,EC50,Streptococcus,15.7 µM (active)
COc1ccc(C(CNC(=O)c2cc(S(=O)(=O)NCc3ccccc3)ccc2C)N2CCOCC2)cc1 (stereo not given),IC50,[6],11 µM (active)
COc1ccc(S(=O)(=O)N/N=C(/C)c2cccc(NC(=O)c3ccccc3Cl)c2)cc1,AC50,Cytochrome P450 2C19,0.398 µM (inconclusive)
same,AC50,Cytochrome P450 2D6,28.2 µM (inconclusive)
same,AC50,Cytochrome P450 1A2,14.1 µM (inconclusive)
